# Structures can show the parent of a compound that is named as a salt.
# Biological target: T1, human GPR39 receptor (Homo sapiens, UniProt O43194)
# T1 construct: PC3 Cells, Expressing the Endogenous Human GPR39 Receptor; endogenous in cells; host or cells: PC3 (human prostate adenocarcinoma) cells
# T1 sequence (O43194 1-453): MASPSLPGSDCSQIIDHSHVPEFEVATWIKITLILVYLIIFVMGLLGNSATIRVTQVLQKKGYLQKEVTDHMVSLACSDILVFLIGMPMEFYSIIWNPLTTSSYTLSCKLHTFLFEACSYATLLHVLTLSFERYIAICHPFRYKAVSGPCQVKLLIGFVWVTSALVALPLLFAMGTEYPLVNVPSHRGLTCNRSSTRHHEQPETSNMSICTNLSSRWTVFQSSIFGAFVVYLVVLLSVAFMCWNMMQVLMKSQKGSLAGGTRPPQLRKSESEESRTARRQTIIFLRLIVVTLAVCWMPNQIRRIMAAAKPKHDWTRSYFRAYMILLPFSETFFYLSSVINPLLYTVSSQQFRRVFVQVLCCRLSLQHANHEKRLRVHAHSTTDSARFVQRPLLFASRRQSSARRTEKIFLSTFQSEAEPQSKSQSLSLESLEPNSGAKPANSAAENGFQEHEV
# Assay: Measurement of intracellular calcium response in PC3 cells (FLIPR), antagonism of the C3 agonist response
# Type: cell-based
# Details: functional pKi (modified Cheng-Prusoff), inhibition of the C3 (TC-G 1008) response at EC90, 30 μM ZnCl2, read-out: fpKi activity
# Summary of the method: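 Potency was reported as fpKi, converted by modified Cheng-Prusoff from four-parameter IC50 fits against an EC90 C3 agonist challenge. Calcium-6 FLIPR readings used PC3 cells naturally expressing human GPR39, in pH 7.4 HEPES buffer containing 30 μM final ZnCl2. Score bands: +/± <5.2, + 5.2–5.9, ++ 6.0–6.5, +++ 6.6–7.2, ++++ ≥7.3.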
row,Ki,SMILES
1,≤ 50.1 nM,"CN1CCN(C(=O)c2ccc(NC(=O)C3CC3)cc2N2CCCC2)C(c2ccccc2Cl)C1 (racemic) [Example 170c, N-[4-[2-(2-chlorophenyl)-4-methylpiperazine-1-carbonyl]-3-pyrrolidin-1-ylphenyl]cyclopropanecarboxamide]"
2,63.1 to 251 nM,"CN1CCN(C(=O)c2ccc(NC(=O)C3CC3)nc2N2CCC(F)(F)C2)C(c2ccccc2)C1 (single isomer, unassigned) [Example 148a, (2R or 2S) N-[6-(3,3-difluoropyrrolidin-1-yl)-5-(4-methyl-2-phenylpiperazine-1-carbonyl)pyridin-2-yl]cyclopropanecarboxamide]"
3,63.1 to 251 nM,"O=C(Nc1ccc(C(=O)N2CCS(=O)(=O)CC2)c(N2CCCC(C(F)(F)F)C2)c1)C1CC1 (single isomer, unassigned) [Example 185a, N-[4-(1,1-dioxo-1,4-thiazinane-4-carbonyl)-3-[3R or 3S-(trifluoromethyl)piperidin-1-yl]phenyl]cyclopropanecarboxamide]"
4,316 to 1000 nM,"Cc1ccn(-c2cc(NC(=O)C3CC3)ccc2C(=O)N2CCN(C)CC2c2ccccc2)n1 (single isomer, unassigned) [Example 155a, (2R or 2S) N-[4-(4-methyl-2-phenylpiperazine-1-carbonyl)-3-(3-methylpyrazol-1-yl)phenyl] cyclopropanecarboxamide]"
5,63.1 to 251 nM,"O=C(Nc1ccc(C(=O)N2CCC3(CC2)COC3)c(N2CCC(C(F)(F)F)C2)c1)C1CC1 (racemic) [Example 213c, N-[4-(2-oxa-7-azaspiro[3.5]nonane-7-carbonyl)-3-[3-(trifluoromethyl)pyrrolidin-1-yl]phenyl]cyclopropanecarboxamide]"
6,1260 to 6310 nM,"CN1CCN(C(=O)c2ccc(NC(=O)C3CC3)cc2N2CCCCCC2)C(c2ccsc2)C1 (single isomer, unassigned) [Example 70a, N-(3-(azepan-1-yl)-4-(4-methyl-2-(thiophen-3-yl)piperazine-1-carbonyl)phenyl)cyclopropane carboxamide]"
7,63.1 to 251 nM,"CC1CC(C)CN(c2cc(NC(=O)C3CC3)ccc2C(=O)N2CCN(C)CC2c2ccccc2)C1 (single isomer, unassigned) [Example 68d, Anti N-[3-[3,5-dimethylpiperidin-1-yl]-4-(4-methyl-2-phenylpiperazine-1-carbonyl)phenyl]cyclopropanecarboxamide]"
8,1260 to 6310 nM,"CN1CCN(C(=O)c2ccc(NC(=O)C3CC3)cc2N2CCCC2)C(c2cccc(F)c2)C1 (single isomer, unassigned) [Example 88b, N-[4-[2-(3-fluorophenyl)-4-methylpiperazine-1-carbonyl]-3-pyrrolidin-1-ylphenyl]cyclopropanecarboxamide]"
9,63.1 to 251 nM,"Cc1nnc(-c2ccc(C(=O)N3CCN(C)CC3c3ccccc3)c(N3CCC(C(F)(F)F)C3)c2)[nH]1 (single isomer, unassigned) [Example 177a, (2S, 3R) or (2R, 3S) or (2R, 3R) or (2S, 3S) (4-methyl-2-phenylpiperazin-1-yl)-[4-(5-methyl-4H-1,2,4-triazol-3-yl)-2-[3-(trifluoromethyl)pyrrolidin-1-yl]phenyl]methanone]"

# Further lines, the compound ahead of its results:
row,SMILES,Ki
1,"CC1CCN(c2cc(NC(=O)C3CC3)ccc2C(=O)N2CCC(C(F)(F)F)CC2)C1 (racemic) [Example 63c, N-[3-(3-methylpyrrolidin-1-yl)-4-[4-(trifluoromethyl)piperidine-1-carbonyl]phenyl]cyclopropanecarboxamide]",≤ 50.1 nM
2,"CC1CC(C)CN(c2cc(NC(=O)C3CC3)ccc2-c2nnc(Sc3ccccc3)n2CCN(C)C)C1 (stereo not drawn) [Example 115, N-[4-[4-[2-(dimethylamino)ethyl]-5-phenylsulfanyl-1,2,4-triazol-3-yl]-3-(3,5-dimethylpiperidin-1-yl)phenyl]cyclopropanecarboxamide]",316 to 1000 nM
3,"O=C(Nc1ccc(C(=O)N2CCC3(CC2)COC3)c(N2CCCC2)c1)C1CC1 [Example 219, N-[4-(2-oxa-7-azaspiro[3.5]nonane-7-carbonyl)-3-pyrrolidin-1-ylphenyl]cyclopropanecarboxamide]",63.1 to 251 nM
4,"CCCN1CCN(C(=O)c2ccc(NC(=O)C3CC3)cc2-c2ccccn2)CC1 [Example 11, N-(4-(4-propylpiperazine-1-carbonyl)-3-(pyridin-2-yl)phenyl)cyclopropanecarboxamide]",316 to 1000 nM
5,"CN1CCN(C(=O)c2ccc(NC(=O)C3CC3)cc2N2CCCCCC2)C(c2ccccn2)C1 (stereo not drawn) [Example 74, N-[3-(azepan-1-yl)-4-(4-methyl-2-pyridin-2-ylpiperazine-1-carbonyl)phenyl]cyclopropanecarboxamide]",1260 to 6310 nM
6,"CN(C)C(=O)N1CCN(C(=O)c2ccc(NC(=O)C3CC3)cc2N2CCCC2)C(c2ccccc2)C1 (stereo not drawn) [Example 216, 4-[4-(cyclopropanecarbonylamino)-2-pyrrolidin-1-ylbenzoyl]-N,N-dimethyl-3-phenylpiperazine-1-carboxamide]",63.1 to 251 nM
7,"CN1CCN(C(=O)c2ccc(NC(=O)C3CC3)cc2N2CCCC2)C(c2ccccc2)C1 (single isomer, unassigned) [Example 62d, 2R or 2S N-[4-(4-methyl-2-phenylpiperazine-1-carbonyl)-3-pyrrolidin-1-ylphenyl]cyclopropanecarboxamide hydrochloride]",63.1 to 251 nM
8,"CCCN1CCN(C(=O)c2ccc(NC(=O)C3CC3)cc2N2CCC3(CCC3)C2)CC1 [Example 1, N-(4-(4-propylpiperazine-1-carbonyl)-3-(6-azaspiro[3.4]octan-6-yl)phenyl)cyclopropanecarboxamide]",≤ 50.1 nM
9,"COc1ccccc1CN1CCN(C(=O)c2ccc(NC(=O)C3CC3)cc2N2CCCCCC2)CC1 [Example 27, N-(3-(azepan-1-yl)-4-(4-(2-methoxybenzyl)piperazine-1-carbonyl)phenyl) cyclopropanecarboxamide]",316 to 1000 nM
10,"O=C(NCc1ccccn1)c1ccc(NC(=O)C2CC2)cc1N1CCCCCC1 [Example 42, 2-(azepan-1-yl)-4-cyclopropaneamido-N-[(pyridin-2-yl)methyl]benzamide]",316 to 1000 nM
11,"COc1ccc(CN2CCN(C(=O)c3ccc(NC(=O)C4CC4)cc3N3CCCCCC3)CC2)cc1 [Example 30, N-(3-(azepan-1-yl)-4-(4-(4-methoxybenzyl)piperazine-1-carbonyl)phenyl) cyclopropanecarboxamide]",316 to 1000 nM
12,"O=C(Nc1ccc(C(=O)N2CCS(=O)(=O)CC2)c(N2CCC(F)(F)CC2)c1)C1CC1 [Example 196, N-[3-(4,4-difluoropiperidin-1-yl)-4-(1,1-dioxo-1,4-thiazinane-4-carbonyl)phenyl]cyclopropanecarboxamide]",1260 to 6310 nM
13,"O=C(Nc1ccc(C(=O)N2CCN(Cc3ccccc3F)CC2)c(N2CCCCCC2)c1)C1CC1 [Example 28, N-(3-(azepan-1-yl)-4-(4-(2-fluorobenzyl)piperazine-1-carbonyl)phenyl) Cyclopropanecarboxamide]",63.1 to 251 nM
14,"Cc1nnc(-c2ccc(C(=O)N3CCC(F)(F)CC3)c(-n3ccc(C(C)C)n3)c2)[nH]1 [Example 210, (4,4-difluoropiperidin-1-yl)-[4-(5-methyl-4H-1,2,4-triazol-3-yl)-2-(3-propan-2-ylpyrazol-1-yl)phenyl]methanone]",≤ 50.1 nM
15,"Cc1noc(C)c1CN1CCN(C(=O)c2ccc(NC(=O)C3CC3)cc2N2CCCCCC2)C(c2ccccc2)C1 (stereo not drawn) [Example 81, N-[3-(azepan-1-yl)-4-[4-[(3,5-dimethyl-1,2-oxazol-4-yl)methyl]-2-phenylpiperazine-1-carbonyl]phenyl]cyclopropanecarboxamide]",316 to 1000 nM
16,"O=C(Nc1ccc(C(=O)N2CCN(c3ccccn3)CC2)c(N2CCCCCC2)c1)C1CC1 [Example 46, N-(3-(azepan-1-yl)-4-(4-(pyridin-2-yl)piperazine-1-carbonyl)phenyl) Cyclopropanecarboxamide]",316 to 1000 nM
17,"CN1CCN(C(=O)c2ccc(NC(=O)C3CC3)cc2N2CC3(COC3)C2)C(c2ccccc2)C1 (stereo not drawn) [Example 204, N-[4-(4-methyl-2-phenylpiperazine-1-carbonyl)-3-(2-oxa-6-azaspiro[3.3]heptan-6-yl)phenyl]cyclopropanecarboxamide]",316 to 1000 nM
18,"Cc1cc(C(F)(F)F)nn1-c1cc(NC(=O)C2CC2)ccc1C(=O)N1CCS(=O)(=O)CC1 [Example 178, N-[4-(1,1-dioxo-1,4-thiazinane-4-carbonyl)-3-[5-methyl-3-(trifluoromethyl)pyrazol-1-yl]phenyl]cyclopropanecarboxamide]",63.1 to 251 nM
19,"CCCN1CCN(C(=O)c2ccc(NC(=O)c3ccccc3)cc2N2CCCCCC2)CC1 [Example 91, N-(3-(azepan-1-yl)-4-(4-propylpiperazine-1-carbonyl)phenyl)benzamide]",1260 to 6310 nM
20,"CCCN1CCN(C(=O)c2ccc(NC(=O)C(C)C)cc2N2CCCCCC2)CC1 [Example 93, N-(3-(azepan-1-yl)-4-(4-propylpiperazine-1-carbonyl)phenyl)isobutyramide]",316 to 1000 nM
21,"O=C(Nc1ccc(C(=O)N2CCC(C(F)(F)F)CC2)c(N2CCCC2)n1)C1CC1 [Example 107, N-[6-pyrrolidin-1-yl-5-[4-(trifluoromethyl)piperidine-1-carbonyl]pyridin-2-yl]Cyclopropanecarboxamide]",≤ 50.1 nM
